Results as given in patent US11028051B2, “Tetrahydroquinoline-based bromodomain inhibitors” (St. Jude Children's Research Hospital, priority 2016, dated 2021).
Like-named read-outs stand apart in the source and are kept apart here.

Experiments:
BRD2-BD1 [1] = biological target: T1, BRD2-BD1 (Homo sapiens (Human), UniProt P25440); test: competitive TR-FRET assay, BET-BD with acetylated peptide ligand; assay type: binding; settings: for IC50: Table 2, inhibitor potency by TR-FRET
Experimental: (§1) Inhibitor potency was determined using a competitive TR-FRET assay as detailed herein, measuring interaction of the respective BET-BD with an acetylated peptide ligand (Table 2).
Target sequence in this assay (P25440 74-180): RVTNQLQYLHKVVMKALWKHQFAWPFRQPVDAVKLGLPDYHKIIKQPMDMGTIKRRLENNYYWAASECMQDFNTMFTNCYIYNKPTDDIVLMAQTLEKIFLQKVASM

BRD2-BD2 [2] = biological target: T2, BRD2-BD2 (Homo sapiens (Human), UniProt P25440); test: as above; assay type: binding; settings: for IC50: Table 2, inhibitor potency by TR-FRET; for BD1/BD2: Table 2, ratio BRD2-BD1/BRD2-BD2
Experimental: as §1
Target sequence in this assay (P25440 344-453): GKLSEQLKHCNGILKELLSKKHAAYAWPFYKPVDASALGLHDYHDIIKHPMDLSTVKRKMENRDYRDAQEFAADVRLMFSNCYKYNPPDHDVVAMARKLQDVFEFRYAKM

BRD3-BD1 = BRD3-BD1 (Homo sapiens (Human), UniProt Q15059); test: as above; assay type: binding; settings: for IC50: Table 2, inhibitor potency by TR-FRET
Chain of BRD3-BD1 (Q15059 34-140): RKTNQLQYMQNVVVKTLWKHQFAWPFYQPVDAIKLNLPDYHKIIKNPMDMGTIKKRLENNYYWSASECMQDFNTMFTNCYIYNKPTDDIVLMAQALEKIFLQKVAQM
Experimental: as §1

BRD4-BD1 = BRD4-BD1 (Homo sapiens (Human), UniProt O60885); test: as above; assay type: binding; settings: for IC50: Table 2, inhibitor potency by TR-FRET
Experimental: as §1

BRD4-BD2 = BRD4-BD2 (Homo sapiens (Human), UniProt O60885); test: as above; assay type: binding; settings: for IC50: Table 2, inhibitor potency by TR-FRET
Experimental: as §1

BRDT = BRDT (Homo sapiens, UniProt Q58F21); test: as above; assay type: binding; settings: for IC50: Table 2, inhibitor potency by TR-FRET
Experimental: as §1

BRD2-BD1 [3] = biological target: T1, BRD2-BD1; test: isothermal titration calorimetry analysis of binding; settings: ITC; for ΔG / ΔH / −TΔS: BRD2-BD1; for Kd: BRD2-BD1, average of 3 experiments, read-out: average Kd
Experimental: (§2) b. Isothermal Titration Calorimetry Analysis of Binding to Brd2-BD1 and Brd2-BD2
(§3) Binding of compounds to BRD2 was monitored using an ITC200 (Microcal, Piscataway, N.J.). Either Brd2.1 (74-194) or Brd2.2 (348-455) was dialyzed overnight into a solution containing 50 mM HEPES, pH 7.0 and 150 mM NaCl at 15° C. Enzyme concentrations were determined after dialysis by absorbance at 280 nm using a molar extinction coefficient (ε280) of 25,565 M^−1 cm^−1 (2.1) or 16,055 M^−1 cm^−1 (2.2). Enzyme was diluted in dialysis buffer and 39.6 μL was loaded into the syringe. Compounds were dissolved in the same dialysis buffer and loaded in the cell to a volume of 204 μL. Injections were carried out by serial injections of enzyme; first, 1 injection of 1 μL, followed by 19 incremental injections of 2 μL, at 120 second intervals. Data from the first injection was excluded, due to pre-equilibration mixing between the contents of cell and syringe at the syringe tip. Peak areas were integrated, normalized, and then fitted by non-linear regression using the independent sites model in Origin™ (version 2.3.6, Microcal, Piscataway, N.J.).
Target sequence in this assay (P25440 74-194): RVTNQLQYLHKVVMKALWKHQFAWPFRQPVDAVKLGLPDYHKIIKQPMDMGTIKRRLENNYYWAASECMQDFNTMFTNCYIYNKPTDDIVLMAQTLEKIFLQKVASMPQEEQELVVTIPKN

BRD2-BD2 [4] = biological target: T2, BRD2-BD2; test: as above; settings: ITC; for ΔG / ΔH / −TΔS: BRD2-BD2; for Kd: BRD2-BD2, average of 3 experiments, read-out: average Kd
Experimental: as §2, §3
Target sequence in this assay (P25440 348-455): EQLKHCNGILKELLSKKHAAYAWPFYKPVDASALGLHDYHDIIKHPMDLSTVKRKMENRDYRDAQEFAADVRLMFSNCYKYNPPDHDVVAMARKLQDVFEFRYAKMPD

BRD2-BD2 [5] = test: as above; settings: ITC Kd BRD2-BD1 / BRD2-BD2
Experimental: as §2, §3

[6] = test system: c-Myc oncogene expression; settings: previous study with BD2-selective BET inhibitor; cited from earlier work
HDMB03 cells = test: cell viability, CellTiter-Glo; assay type: cell-based, human; settings: Homo sapiens
Experimental: Human G3 medulloblastoma or mouse SHH medulloblastoma cells were grown as neurospheres in supplemented neurobasal medium, as previously described (Kawauchi et al., 2012.)
(§4) After 7 days of treatment, an equal volume of CellTiter-Glo reagent (G7572, Promega) was added and the luminescence signal was measured using an automated Envision plate reader (Perkin-Elmer). Luminescence data were normalized by log10 transformation prior to calculating the percent inhibition using the following equation:
(§5) 100*(negative control mean −compound value)/(negative control mean −positive control mean).
High-throughput assay data were analyzed using Robust Interpretation of Screening Experiments (RISE) application written in Pipeline Pilot (Accelrys, v. 8.5) and the R program (R Development Core Team).
Dose-response curves were calculated by regressing the median percent inhibition obtained over triplicate experiments to log 10-transformed concentrations. Non-linear regression was then performed using the R drc package with the four parameter log-logistic function (LL2.4) (Ritz and Streibig, 2009). Curves were fit under three different constraints: (1) all parameters free, (2) high response fixed to 100, (3) low response fixed to 0; and the best fit from these three nested models was selected using the anova.drc function.

NALM-16 = test: anti-proliferative activity; assay type: cell-based; settings: NALM16; Table 5
Experimental: as §4, §5

[7] = test system: c-Myc expression in HDMB03 cells; test: c-Myc expression inhibition, high content microscopy (HCM); assay type: cell-based, human; settings: Homo sapiens
Experimental: 3000 human G3 medulloblastoma or 2000 mouse SHH medulloblastoma cells per well were plated into 384-well plates (6007710, Perkin Elmer) in 30 μL of supplemented neurobasal medium using a Wellmate automated dispenser (Thermo Matrix). After 24 hours, 125 nl of compound was transferred via pin tool, resulting in a final drug concentration from 2 nM to 40 μM. 72 hours after adding the drug, the plates were fixed with 4% formaldehyde for 20 min. After fixation the cells were then washed 3 times with 75 μl of PBS. The cells were then permeabilized with 0.1% Triton-X 100 for 15 minutes at 25° C. and blocked using 1% BSA in PBS for 1 hour at 25° C. The primary antibody against c-Myc Ab (#9402, Cell Signaling) at a 1:400 dilution was diluted in 1% BSA in PBS. This mixture was added to each well before incubation overnight at 4° C. Each well was then washed 3 times with PBS using a Biotek ELX405 Select plate washer, and incubated for 1 hour at 25° C. with a solution containing 1/400 goat α-rabbit-Alexa-488 (4412S, Cell Signaling) and 1 μM Hoechst 33342 to detect nuclear material (H3570, Molecular Probes). Two images were captured of each well at 10× using a GE Healthcare InCell 6000 at 405 nM to detect nuclear staining and 488 nM to detect c-Myc. All data were analyzed using the multi-target analysis algorithm of the GE InCell Analyzer Workstation software. The number of nuclear objects in each well, as well as all nuclear measurements, was determined through nuclear masks over the Hoechst staining. C-Myc staining was then measured using top-hat segmentation in the entire cell.

Structure (SMILES)	IC50 (BRD2-BD1 [1]) [nM]	IC50 (BRD2-BD2 [2]) [nM]	BD1/BD2 (BRD2-BD2 [2])	IC50 (BRD3-BD1) [nM]	IC50 (BRD4-BD1) [nM]	IC50 (BRD4-BD2) [nM]	IC50 (BRDT) [nM]	ΔG (BRD2-BD1 [3]) [kcal/mol]	ΔH (BRD2-BD1 [3]) [kcal/mol]	−TΔS (BRD2-BD1 [3]) [kcal/mol]	Kd (BRD2-BD1 [3]) [nM]	ΔG (BRD2-BD2 [4]) [kcal/mol]	ΔH (BRD2-BD2 [4]) [kcal/mol]	−TΔS (BRD2-BD2 [4]) [kcal/mol]	Kd (BRD2-BD2 [4]) [nM]	Selectivity (2-1/2-2) (BRD2-BD2 [5])	other results
CC(=O)N1c2ccc(-c3cc[nH]c3)cc2[C@H](NC(=O)OC(C)C)C[C@@H]1C [compound 55]	1710	370	5	260	1300	1200	49000	-9.28	-7.33	-1.95	91.5	-10.15	-7.01	-3.32	19.9	4.6	–
COc1cc(OC)c2c(=O)[nH]c(-c3cc(C)c(OCCO)c(C)c3)nc2c1 [RVX-208]	–	–	–	–	–	–	–	–	–	–	–	–	–	–	–	–	c-Myc oncogene expression [6]: did not inhibit c-Myc oncogene expression
CC(=O)N1c2ccc(-c3cccs3)cc2[C@H](NC(=O)OC(C)C)C[C@@H]1C [compound 52]	1680	340	5	1200	> 77800	3000	–	-9.52	-8.27	-1.25	61.3	-10.12	-7.18	-2.94	20.9	2.9	–
CC(=O)Nc1cccc(-c2ccc3c(c2)[C@H](Nc2ccc(Cl)cc2)C[C@H](C)N3C(C)=O)c1 [compound 10]	–	–	–	–	–	–	–	–	–	–	–	–	–	–	–	–	EC50 (BRD2-BD1 [1]; Table 4, read-out: EC50 (μM) BRD2(1)): 2.6 µM; [2(1)/2(2)] (BRD2-BD2 [2]; Table 4, ratio of EC50): 33; EC50 (BRD2-BD2 [2]; Table 4, read-out: EC50 (μM) BRD2(2)): 0.08 µM; EC50 (BRD3-BD1; Table 4, read-out: BRD3(1)): 1900 nM; EC50 (BRD4-BD1; Table 4, read-out: EC50 (μM) BRD4(1)): 3.1 µM; 4(1)/4(2) (BRD4-BD2; Table 4, ratio of EC50): 15; EC50 (BRD4-BD2; Table 4, read-out: EC50 (μM) BRD4(2)): 0.21 µM; EC50 (BRDT; Table 4, read-out: BRDT EC50): 3700 nM; EC50 (HDMB03 cells; HD-MB03, Table 5, read-out: EC50 (μM) HDMB03): 1.18 µM; EC50 (NALM-16): 0.33 µM; EC50 ([7]; HD-MB03, Table 5, read-out: EC50 (μM) Myc-inhibition): 0.68 µM
CC(=O)N1c2ccc(-c3ccoc3)cc2[C@H](NC(=O)OC(C)C)C[C@@H]1C [compound 51]	7230	1420	5	2300	5800	4300	23000	-8.96	-9.90	0.94	162	-8.61	-6.31	-2.29	300	0.5	EC50 (HDMB03 cells; HD-MB03, HDMB03 cells, read-out: cell viability EC50): 3.3 µM; EC50 ([7]; HD-MB03, HDMB03 cells, read-out: c-Myc expression EC50): 1 µM
